From US10799552B2, “Methods for treating diabetic neurotherapy” (Massachusetts Eye and Ear Infirmary, priority 2011, dated 2020)
Peptide text beside a SMILES is read from it. * marks the point of attachment. Cbz = O=C(OCc1ccccc1)*; CH2F = FC*

Test system: optic nerve axons of retinal ganglion cells
Experiment: Axon regeneration after optic nerve crush injury (βIII-tubulin staining of optic nerve sections)
Type: in vivo, mouse
Settings: intravitreal, ZVAD 300 μM and/or Nec-1 4 mM; 14 days after optic nerve injury; FIGS. 3B-3E
Method: Intravitreal injections were performed as follows. Briefly, the tip of a 33 gauge needle (Hamilton, Reno, Nev.) was carefully inserted through the sclera into the intravitreal space to reduce intraocular pressure. Then, the needle was extracted, loaded with compounds and tangentially reinserted through the sclera into the intravitreal space, inducing a self-sealing wound tunnel. After injection, the absence of choroidal bleeding was confirmed. At specified times after injury, mice were sacrificed with an overdose of sodium pentobarbital, and eyes were enucleated.
To investigate the efficacy of necrosis inhibitor and pan-caspase inhibitor in promoting axon regeneration, eight-weeks-old mice were subjected to optic nerve crush surgery as previously described. […]
Axon regeneration was assessed by obtaining longitudinal sections of the optic nerve and counting the number of axons at pre-specified distances from the injury site. […] Axons were counted manually in at least eight longitudinal sections per case at pre-specified distances from the injury site. The number of regenerating axons at various di stances are determined as described previously (Leon et al., (2000) J NEUROSCI 20: 4615-4626). […]

| SMILES | axon regeneration (axon staining beyond injury site) |
| --- | --- |
| CN1C(=O)NC(Cc2c[nH]c3c(Cl)cccc23)C1=O (centres unmarked) [Nec-1] | minimal effects on axon regeneration |
| COC(=O)CC(NC(=O)C(C)NC(=O)C(NC(=O)OCc1ccccc1)C(C)C)C(=O)CF (stereo not drawn) [ZVAD, Benzyloxycarbonyl-Val-Ala-Asp(OMe)-fluoromethylketone] (Cbz-Val-Ala-Asp(OMe)-CH2F; configuration not given here) | minimal effects on axon regeneration |
